Experimental data as given in US10045983B2, “Heteroaryl pyridone and aza-pyrodine compounds” (Genentech, Inc., priority 2011, dated 2018).
Like-named read-outs stand apart in the source and are kept apart here.

Experiment: CD69 Whole Blood Assay (CD69 Hu Blood FACS)
Format: cell-based, human
Details: Lymphocyte, human whole blood, anti-IgM activated B lymphocytes, FACS, IC70
Text: A CD69 Whole Blood Assay can be conducted on Formula I compounds to determine the ability of compounds to inhibit the production of CD69 by B lymphocytes in human whole blood activated by crosslinking surface IgM with goat F(ab′)2 anti-human IgM (Example 907). CD69 is a type II C-type lectin involved in lymphocyte migration and cytokine secretion. CD69 expression represents one of the earliest available indicators of leukocyte activation and its rapid induction occurs through transcriptional activation (Vazquez et al (2009) Jour. of Immunology Published Oct. 19, 2009, doi:10.4049/jimmunol.0900839). Concentration-dependent inhibition of antigen receptor stimulation by selective Btk inhibitors induces cell surface expression of the lymphocyte activation marker CD69 (Honigberg et al (2010) Proc. Natl. Acad. Sci. 107(29):13075-13080). Thus, CD69 inhibition by selective Btk inhibitors may be correlated with therapeutic efficacy of certain B-cell disorders.

[1] = Table 1, read-out: CD69 Hu Blood FACS IC70
[2] = Table 2 (unit inferred), read-out: CD69 Hu Blood FACS (IC70)

SMILES	IC70 [1] [nM]	IC70 [2] [nM]
Cn1cc(-c2cncc(-n3ccn4c5c(cc4c3=O)CCCC5)c2CO)cc(Nc2ccc(N3CCN(C4COC4)CC3)cn2)c1=O [Example 126, 2-(4-(Hydroxymethyl)-5-(1-methyl-5-(5-(4-(oxetan-3-yl)piperazin-1-yl)pyridin-2-ylamino)-6-oxo-1,6-dihydropyridin-3-yl)pyridin-3-yl)-6,7,8,9-tetrahydropyrazino[1,2-a]indol-1(2H)-one]	138	–
Cn1cc(-c2ccnc(N3CCn4c(cc5c4CCCC5)C3=O)c2CO)cc(Nc2ccc(C(=O)N3CCOCC3)cn2)c1=O [Example 111, 2-(3-(Hydroxymethyl)-4-(1-methyl-5-(5-(morpholine-4-carbonyl)pyridin-2-ylamino)-6-oxo-1,6-dihydropyridin-3-yl)pyridin-2-yl)-3,4,6,7,8,9-hexahydropyrazino[1,2-a]indol-1(2H)-one]	131	–
Cc1cc(Nc2cc(-c3ccnc(N4CCn5c(cc6c5CC(C)(C)C6)C4=O)c3CO)cn(C)c2=O)ns1 [Example 310, 3-[3-(hydroxymethyl)-4-[1-methyl-5-[(5-methylisothiazol-3-yl)amino]-6-oxo-3-pyridyl]-2-pyridyl]-7,7-dimethyl-1,2,6,8-tetrahydrocyclopenta[3,4]pyrrolo[3,5-b]pyrazin-4-one]	–	119
Cc1cc(Nc2cc(-c3ccnc(-n4ncc5c6c(sc5c4=O)CCCC6)c3CO)cn(C)c2=O)no1 [Example 291, 3-[3-(hydroxymethyl)-4-[1-methyl-5-[(5-methylisoxazol-3-yl)amino]-6-oxo-3-pyridyl]-2-pyridyl]-6,7,8,9-tetrahydrobenzothiopheno[2,3-d]pyridazin-4-one]	–	843
C[C@@H]1CN(c2ccc(Nc3cc(-c4ccnc(-n5ncc6c7c(sc6c5=O)CCCC7)c4CO)cn(C)c3=O)nc2)[C@@H](C)CN1C1COC1 [Example 159, 3-{5-[5-((2S, 5R)-2,5-Dimethyl-4-oxetan-3-yl-piperazin-1-yl)-pyridin-2-ylamino]-3′-hydroxymethyl-1-methyl-6-oxo-1,6-dihydro-[3,4′]bipyridinyl-2′-yl}-6,7,8,9-tetrahydro-3H-benzo[4,5]thieno[2,3-d]pyridazin-4-one]	82	–
CN1CCn2nc(Nc3cc(-c4ccnc(N5CCn6c(cc7c6CC(C)(C)C7)C5=O)c4CO)nn(C)c3=O)cc2C1 [Example 297, 3-[3-(hydroxymethyl)-4-[1-methyl-5-[(5-methyl-6,7-dihydro-4H-pyrazolo[1,5-a]pyrazin-2-yl)amino]-6-oxo-pyridazin-3-yl]-2-pyridyl]-7,7-dimethyl-1,2,6,8-tetrahydrocyclopenta[3,4]pyrrolo[3,5-b]pyrazin-4-one]	–	140
C[C@@H]1COC[C@H](C)N1C(=O)c1ccc(Nc2cc(-c3ccnc(N4CCn5c(cc6c5CC(C)(C)C6)C4=O)c3CO)nn(C)c2=O)nc1 [Example 321, 3-[4-[5-[[5-[(3 S,5R)-3,5-dimethylmorpholine-4-carbonyl]-2-pyridyl]amino]-1-methyl-6-oxo-pyridazin-3-yl]-3-(hydroxymethyl)-2-pyridyl]-7,7-dimethyl-1,2,6,8-tetrahydrocyclopenta[3,4]pyrrolo[3,5-b]pyrazin-4-one]	–	112
Cn1cc(-c2ccnc(N3CCn4c(cc5c4CC(C)(C)C5)C3=O)c2CO)nc(Nc2ccc3nccn3c2)c1=O [Example 201, 3-[3-(hydroxymethyl)-4-[6-(imidazo[1,2-a]pyridin-6-ylamino)-4-methyl-5-oxo-pyrazin-2-yl]-2-pyridyl]-7,7-dimethyl-1,2,6,8-tetrahydrocyclopenta[3,4]pyrrolo[3,5-b]pyrazin-4-one]	–	3300
Cn1cc(-c2ccnc(N3CCc4c(sc5c4CC(C)(C)C5)C3=O)c2CO)cc(Nc2cnccn2)c1=O [Example 184, 6-[3′-Hydroxymethyl-1-methyl-6-oxo-5-(pyrazin-2-ylamino)-1,6-dihydro-[3,4′]bipyridinyl-2′-yl]-2,2-dimethyl-2,3,5,6-tetrahydro-1H,4H-8-thia-6-aza-cyclopenta[a]inden-7-one]	601	–
Cn1cc(-c2ccnc(-n3ccn4c5c(cc4c3=O)CCCC5)c2CO)cc(Nc2ccc(N3CCN(C4COC4)CC3)cn2)c1=O [Example 121, 2-(3-(hydroxymethyl)-4-(1-methyl-5-(5-(4-(oxetan-3-yl)piperazin-1-yl)pyridine-2-ylamino)-6-oxo-1,6-dihydropyridin-3-yl)pyridin-2-yl)-6,7,8,9-tetrahydropyrazino[1,2-a]indol-1(2H)-one]	32.3	–
Cn1cc(-c2ccnc(N3CCn4c5c(c(F)c4C3=O)CCCC5)c2CO)cc(Nc2cc3n(n2)CCN(C2COC2)C3)c1=O [Example 166, 10-Fluoro-2-[3′-hydroxymethyl-1-methyl-5-(5-oxetan-3-yl-4,5,6,7-tetrahydro-pyrazolo[1,5-a]pyrazin-2-ylamino)-6-oxo-1,6-dihydro-[3,4′]bipyridinyl-2′-yl]-3,4,6,7,8,9-hexahydro-2H-pyrazino[1,2-a]indol-1-one]	155	–
CC1Cn2nc(Nc3cc(-c4ccnc(N5CCn6c(cc7c6CCCC7)C5=O)c4CO)cn(C)c3=O)cc2CN1C (stereo not drawn) [Example 250, 2-[4-[5-[(5,6-dimethyl-6,7-dihydro-4H-pyrazolo[1,5-a]pyrazin-2-yl)amino]-1-methyl-6-oxo-3-pyridyl]-3-(hydroxymethyl)-2-pyridyl]-3,4,6,7,8,9-hexahydropyrazino[1,2-a]indol-1-one]	–	171
C[C@@H]1CN(c2ccc(Nc3cc(-c4ccnc(N5CCn6c(cc7c6CCCC7)C5=O)c4CO)cn(C)c3=O)nc2)[C@@H](C)CN1C1COC1 [Example 122, 2-(4-(5-(5-((2S,5R)-2,5-Dimethyl-4-(oxetan-3-yl)piperazin-1-yl)pyridin-2-ylamino)-1-methyl-6-oxo-1,6-dihydropyridin-3-yl)-3-(hydroxymethyl)pyridin-2-yl)-3,4,6,7,8,9-hexahydropyrazino[1,2-a]indol-1(2H)-one]	12.7	–
Cc1nccc(Nc2cc(-c3ccnc(N4CCn5c(cc6c5CC(C)(C)C6)C4=O)c3CO)cn(C)c2=O)n1 [Example 179, 2-[3′-Hydroxymethyl-1-methyl-5-(2-methyl-pyrimidin-4-ylamino)-6-oxo-1,6-dihydro-[3,4′]bipyridinyl-2′-yl]-7,7-dimethyl-3,4,7,8-tetrahydro-2H,6H-cyclopenta[4,5]pyrrolo[1,2-a]pyrazin-1-one]	209	–
C[C@H]1CN(C2COC2)CCN1c1ccc(Nc2cc(-c3ccnc(N4CCn5c(cc6c5CCCC6)C4)c3CO)cn(C)c2=O)nc1 [Example 220, 5-[2-(3,4,6,7,8,9-hexahydro-1H-pyrazino[1,2-a]indol-2-yl)-3-(hydroxymethyl)-4-pyridyl]-1-methyl-3-[[5-[(2S)-2-methyl-4-(oxetan-3-yl)piperazin-1-yl]-2-pyridyl]amino]pyridin-2-one]	–	1600
Cn1cc(-c2ccnc(N3CCc4c(sc5c4CC(C)(C)C5)C3=O)c2CO)cc(Nc2ccncn2)c1=O [Example 143, 6-[3′-Hydroxymethyl-1-methyl-6-oxo-5-(pyrimidin-4-ylamino)-1,6-dihydro-[3,4′]bipyridinyl-2′-yl]-2,2-dimethyl-2,3,5,6-tetrahydro-1H,4H-8-thia-6-aza-cyclopenta[a]inden-7-one]	30.9	–
Cn1cc(-c2ccnc(N3CCn4c(cc5c4CCCC5)C3=O)c2CO)cc(Nc2cc(C3CC3)[nH]n2)c1=O [Example 118, 2-(4-(5-(5-Cyclopropyl-1H-pyrazol-3-ylamino)-1-methyl-6-oxo-1,6-dihydropyridin-3-yl)-3-(hydroxymethyl)pyridin-2-yl)-3,4,6,7,8,9-hexahydropyrazino[1,2-a]indol-1(2H)-one]	608	–
CN1CC(c2ccc(Nc3cc(-c4ccnc(N5CCc6c(cc7n6CCCC7)C5=O)c4CO)cn(C)c3=O)nc2)C1 [Example 244, 2-[3-(hydroxymethyl)-4-[1-methyl-5-[[5-(1-methylazetidin-3-yl)-2-pyridyl]amino]-6-oxo-3-pyridyl]-2-pyridyl]-3,4,6,7,8,9-hexahydropyrido[3,4-b]indolizin-1-one]	–	138
C[C@H]1CN(C2COC2)CCN1c1ccc(Nc2cc(-c3ccnc(-n4ncc5c(cc6n5CCCC6)c4=O)c3CO)cn(C)c2=O)nc1 [Example 193, 2-[3-(hydroxymethyl)-4-[1-methyl-5-[[5-[(2S)-2-methyl-4-(oxetan-3-yl)piperazin-1-yl]-2-pyridyl]amino]-6-oxo-3-pyridyl]-2-pyridyl]-6,7,8,9-tetrahydropyridazino[4,5-b]indolizin-1-one]	–	99.5
COC[C@@H](C)N1CCn2nc(Nc3cc(-c4ccnc(N5CCn6c(cc7c6CC(C)(C)C7)C5=O)c4CO)cn(C)c3=O)cc2C1 [Example 300, (R)-2-(3′-(hydroxymethyl)-5-((5-(1-methoxypropan-2-yl)-4,5,6,7-tetrahydropyrazolo[1,5-a]pyrazin-2-yl)amino)-1-methyl-6-oxo-1,6-dihydro-[3,4′-bipyridin]-2′-yl)-7,7-dimethyl-2,3,4,6,7,8-hexahydro-1H-cyclopenta[4,5]pyrrolo[1,2-a]pyrazin-1-one]	–	24
CCN1CCn2nc(Nc3cc(-c4ccnc(N5CCn6c(cc7c6CCCC7)C5=O)c4CO)cn(C)c3=O)cc2C1 [Example 177, 2-(4-(5-(5-ethyl-4,5,6,7-tetrahydropyrazolo[1,5-a]pyrazin-2-ylamino)-1-methyl-6-oxo-1,6-dihydropyridin-3-yl)-3-(hydroxymethyl)pyridin-2-yl)-3,4,6,7,8,9-hexahydropyrazino[1,2-a]indol-1(2H)-one]	107	–
